Columns and labels:
Assay type in all cases: in vivo
[1] = system: blackgrass (Alopecurus myosuroides); experiment: Test A postemergence blackgrass; conditions: 0 to 100 scale, 0 is no effect, 100 is complete control
Procedure, shortened: (§1)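 Directed soil spray at planting gives preemergence data; foliar application to one- to two-leaf plants gives postemergence data. Response is visual injury relative to untreated controls about 10 d after treatment, scored 0–100.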

[2] = system: barnyardgrass (Echinochloa crus-galli); experiment: Test B flooded paddy test barnyardgrass; conditions: Table B, Flood, 500 g ai/ha, scale 0 to 100
Procedure, shortened: (§2)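 Water-applied paddy treatment: compound dosed into 3 cm flood on 2-leaf plants, read visually versus controls after 13 to 15 d.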

[3] = system: ryegrass, Italian (Italian ryegrass, Lolium multiflorum); experiment: Test A postemergence ryegrass, Italian; conditions: 0 to 100 scale, 0 is no effect, 100 is complete control
Procedure, shortened: as §1

kochia (Kochia scoparia) [4] = experiment: Test A postemergence kochia; conditions: 0 to 100 scale, 0 is no effect, 100 is complete control
Procedure, shortened: as §1

[5] = system: barnyardgrass (Echinochloa crus-galli); experiment: Test A postemergence barnyardgrass; conditions: 0 to 100 scale, 0 is no effect, 100 is complete control
Procedure, shortened: as §1

[6] = system: ryegrass, Italian (Italian ryegrass, Lolium multiflorum); experiment: Test A preemergence ryegrass, Italian; conditions: 0 to 100 scale, 0 no effect, 100 complete control
Procedure, shortened: as §1

[7] = system: ragweed (common ragweed, Ambrosia elatior); experiment: Test A preemergence ragweed; conditions: 0 to 100 scale, 0 no effect, 100 complete control
Procedure, shortened: as §1

[8] = system: pigweed (Amaranthus retroflexus); experiment: Test A postemergence pigweed; conditions: 0 to 100 scale, 0 is no effect, 100 is complete control
Procedure, shortened: as §1

[9] = system: pigweed (Amaranthus retroflexus); experiment: Test A preemergence pigweed; conditions: 0 to 100 scale, 0 no effect, 100 complete control
Procedure, shortened: as §1

[10] = system: ducksalad (Heteranthera limosa); experiment: Test B flooded paddy test ducksalad; conditions: Table B, Flood, 500 g ai/ha, scale 0 to 100
Procedure, shortened: as §2

[11] = system: wheat (Triticum aestivum); experiment: Test A postemergence wheat; conditions: 0 to 100 scale, 0 is no effect, 100 is complete control
Procedure, shortened: as §1

[12] = system: barnyardgrass (Echinochloa crus-galli); experiment: Test A preemergence barnyardgrass; conditions: 0 to 100 scale, 0 no effect, 100 complete control
Procedure, shortened: as §1

[13] = system: sedge, umbrella (small-flower umbrella sedge, Cyperus difformis); experiment: Test B flooded paddy test sedge, umbrella; conditions: Table B, Flood, 500 g ai/ha, scale 0 to 100
Procedure, shortened: as §2

[14] = system: foxtail, giant (giant foxtail, Setaria faberii); experiment: Test A preemergence foxtail, giant; conditions: 0 to 100 scale, 0 no effect, 100 complete control
Procedure, shortened: as §1

rice (Oryza sativa) = experiment: Test B flooded paddy test rice; conditions: Table B, Flood, 500 g ai/ha, scale 0 to 100
Procedure, shortened: as §2

corn (Zea mays) = experiment: Test A postemergence corn; conditions: 0 to 100 scale, 0 is no effect, 100 is complete control
Procedure, shortened: as §1

[15] = system: foxtail, giant (giant foxtail, Setaria faberii); experiment: Test A postemergence foxtail, giant; conditions: 0 to 100 scale, 0 is no effect, 100 is complete control
Procedure, shortened: as §1

[16] = system: ragweed (common ragweed, Ambrosia elatior); experiment: Test A postemergence ragweed; conditions: 0 to 100 scale, 0 is no effect, 100 is complete control
Procedure, shortened: as §1

kochia (Kochia scoparia) [17] = experiment: Test A preemergence kochia; conditions: 0 to 100 scale, 0 no effect, 100 complete control
Procedure, shortened: as §1

[18] = system: galium (catchweed bedstraw, Galium aparine); experiment: Test A postemergence galium; conditions: 0 to 100 scale, 0 is no effect, 100 is complete control
Procedure, shortened: as §1

O=C1NCCC(c2cccc(C(F)(F)F)c2)C1C(=O)Nc1ccccc1Cl (racemic) [Compound 17]
0: Plant response rating, Ryegrass, Italian ([3]; 125 g ai/ha) | Plant response rating, Kochia (kochia (Kochia scoparia) [4]; 125 g ai/ha) | Ragweed plant response rating ([7]; 125 g ai/ha) | Ragweed plant response rating ([7]; 500 g ai/ha) | Plant response rating, Pigweed ([8]; 125 g ai/ha) | Plant response rating, Pigweed ([8]; 500 g ai/ha) | Pigweed plant response rating ([9]; 125 g ai/ha) | Pigweed plant response rating ([9]; 500 g ai/ha) | Plant response rating [13] | Plant response rating (rice (Oryza sativa)) | Plant response rating, Corn (corn (Zea mays); 125 g ai/ha) | Plant response rating, Corn (corn (Zea mays); 500 g ai/ha) | Plant response rating, Ragweed ([16]; 125 g ai/ha) | Plant response rating, Ragweed ([16]; 500 g ai/ha)
90: Foxtail, Giant plant response rating ([14]; 500 g ai/ha)
50: Barnyardgrass plant response rating ([12]; 125 g ai/ha)
80: Plant response rating, Barnyardgrass ([5]; 125 g ai/ha) | Plant response rating, Barnyardgrass ([5]; 500 g ai/ha) | Barnyardgrass plant response rating ([12]; 500 g ai/ha) | Foxtail, Giant plant response rating ([14]; 125 g ai/ha) | Plant response rating, Foxtail, Giant ([15]; 125 g ai/ha) | Plant response rating, Foxtail, Giant ([15]; 500 g ai/ha)
40: Ryegrass, Italian plant response rating ([6]; 500 g ai/ha) | Plant response rating [10]
35: Plant response rating [2]
20: Plant response rating, Ryegrass, Italian ([3]; 500 g ai/ha) | Plant response rating, Kochia (kochia (Kochia scoparia) [4]; 500 g ai/ha) | Ryegrass, Italian plant response rating ([6]; 125 g ai/ha) | Plant response rating, Wheat ([11]; 125 g ai/ha) | Plant response rating, Wheat ([11]; 500 g ai/ha) | Plant response rating, Galium ([18]; 125 g ai/ha) | Plant response rating, Galium ([18]; 500 g ai/ha)
30: Plant response rating, Blackgrass ([1]; 125 g ai/ha) | Plant response rating, Blackgrass ([1]; 500 g ai/ha) | Kochia plant response rating (kochia (Kochia scoparia) [17]; 125 g ai/ha) | Kochia plant response rating (kochia (Kochia scoparia) [17]; 500 g ai/ha)
